Measurements published in publication PMC9817974, “Pharmacokinetic Basis for Using Saliva Matrine Concentrations as a Clinical Compliance Monitoring in Antitumor B Chemoprevention Trials in Humans” (Cancers, 2022).
“And” between values parts separate entries of the source, which are not always exact repeats. Identical values can stand only once. Like-named read-outs stand apart in the source and are kept apart here.

Columns and labels:
[1] = Single-dose oral pharmacokinetic study of ATB tablets in healthy human subjects (plasma and saliva, non-compartmental analysis); assay type: in vivo; details: for AUC(0-t) / Cmax / Tmax / half-life / Kp: both sexes, human, po; for Kp: saliva and plasma; for inter-subject variability of systemic exposure (AUC): n = 8
Description: In addition, in vivo correlation between plasma and saliva concentrations was determined as the secondary outcome.
The ratio of drug concentration in plasma and saliva were calculated using Equations (1) and (2). (1) RCmax=Cmax saliva/Cmax plasma (2) RAUC=AUC0–24 saliva/AUC0–24 plasma […]
S2.1. Human Pharmacokinetic Study Design
The study was conducted in two phases. Two self-volunteered subjects participated in the study […]
Participants refrained from consumption of […]
dosing blood and saliva samples were collected. Each participant received single-dose oral […]
saliva sample kit for salivary collection. Plasma samples were then collected by centrifugation of […]
hour post-administration. […]
administration. […] Throughout the […]
collected and saline lock was removed. Participants returned the next day morning for 24-hour […]
Participants fasted 8-12 hours before each

[2] = set-up: method as in ref [3] of Supplement S4 (Bui et al.); details: mice; ref [3] of Supplement S4 (Bui et al.); cited from earlier work
[3] = Stability of ATB tablets (ICH storage conditions)
Description: Two independent batches of ATB tablets were tested according to International Conference on Harmonization (ICH) Guideline for long-term (12 months at 25 ± 2 °C/60 ± 5% RH), intermediate (6 months at 30 ± 2 °C/65 ± 5% RH), and accelerated (40 ± 2 °C/75 ± 5% RH) stability [12].

[4] = set-up: method as in Bui et al. [9]; details: ref Bui et al. [9]; cited from earlier work
[5] = Sample stability of ATB components (bench, freeze-thaw, short-term, long-term); assay type: physicochemical; details: in % (unit assumed)
Description: samples for calibration were prepared. The study and QC samples were prepared on the same day as the UPLC-MS/MS analysis was done.
Calibration curves were prepared the same way as described in section S1.2.2. The linearity of each calibration curve was determined by plotting the peak area ratio of Matr, Maac, Dict, and Frax to I.S. in plasma. […] The lower limit of […] was defined based on a signal-to-noise ratio of 10:1.
S1.2.4 Extraction recovery and matrix effect
The extraction recoveries of Matr, Maac, Dict, and Frax were determined by comparing the relative peak areas obtained from blank plasma spiked with analytes and those obtained from water spiked with the same amounts of analytes. Matrix effect was determined by comparing the peak areas of blank plasma extracts spikes with analytes and I.S. with those of the standard solutions dried and reconstituted with mobile phase. The quality control samples were prepared in plasma.
Bench work (25°C for 4 hours), short-term (-20°C for 7 days), long-term (-80°C for 4 months) and three freeze-thaw cycle stabilities were determined.

[6] = set-up: method as in Gao et al. [11]; details: plasma; 1.2 g ATB (equal to 4.8 mg Matr); ref Gao et al. [11]; cited from earlier work
[7] = Sample stability of ATB components (bench, freeze-thaw, short-term, long-term); assay type: physicochemical; details: in % (unit assumed); remark: listed apart in the source
[8] = set-up: method as in Gao et al. [11]; details: blood/plasma ratio; ref Gao et al. [11]; cited from earlier work
[9] = average of 8 healthy volunteers, single oral dose 2400 mg ATB
[10] = average of 8 healthy volunteers, single oral dose 2400 mg ATB, plasma
[11] = average of 8 healthy volunteers, single oral dose 2400 mg ATB, saliva
[12] = individual subjects, single oral dose 2400 mg ATB (8 tablets)
[13] = individual subjects, single oral dose 2400 mg ATB (8 tablets), plasma
[14] = individual subjects, single oral dose 2400 mg ATB (8 tablets), saliva

Structure (SMILES): O=C1CCC[C@@H]2[C@H]3CCCN4CCC[C@@H](CN12)[C@@H]34 [matrine]
- AUC0–24 Saliva/Plasma Ratio [1, 9]: 4.8 ± 1.7
- Cmax Saliva/Plasma Ratio [1, 9]: 6.4 ± 1.8
- AUC0–24 Plasma [1, 10]: 278.34 ± 84.90 ng·h/mL
- Half-Life Plasma [1, 10]: 10.38 ± 3.83 h
- Tmax Plasma [1, 10]: 2.16 ± 0.69 h
- AUC0–24 Saliva [1, 11]: 1302.37 ± 459.28 ng·h/mL
- Half-Life Saliva [1, 11]: 12.37 ± 7.01 h
- Tmax Saliva [1, 11]: 1.56 ± 0.82 h
- AUC(0-t) ([1]; plasma, 2.6 mg, plasma, 2.6 mg Matr p.o. (8 ATB tablets), read-out: AUC0-T Healthy Volunteers Observed): 278 ng·h/mL
- Cmax ([1]; plasma, 2.6 mg, plasma, 2.6 mg Matr p.o. (8 ATB tablets), read-out: Cmax Healthy Volunteers Observed): 25.2 ng/mL
- Tmax ([1]; plasma, 2.6 mg, plasma, 2.6 mg Matr p.o. (8 ATB tablets), read-out: Tmax Healthy Volunteers Observed): 2.2 h
- AUC(0-t) ([1]; plasma, 2400 mg, average of 8 healthy volunteers, single oral dose 2400 mg ATB, plasma, read-out: AUC0–24 Plasma): 266 ± 80 ng·h/mL
- Cmax ([1]; plasma, 2400 mg, average of 8 healthy volunteers, single oral dose 2400 mg ATB, plasma, read-out: Cmax Plasma): 25.2 ± 3.82 ng/mL
- half-life ([1]; plasma, 2400 mg, average of 8 healthy volunteers, single oral dose 2400 mg ATB, plasma, read-out: Half-Life Plasma (converted)): 10 ± 2.8 h
- Tmax ([1]; plasma, 2400 mg, average of 8 healthy volunteers, single oral dose 2400 mg ATB, plasma, read-out: Tmax Plasma): 2 ± 0.6 h
- Cmax ([1]; plasma, 2400 mg, individual subjects, single oral dose 2400 mg ATB (8 tablets), plasma, read-out: Cmax Plasma): 22.8 ng/mL
- Kp ([1]; 2400 mg, average of 8 healthy volunteers, single oral dose 2400 mg ATB, read-out: AUC0–24 Saliva/Plasma Ratio): 4.8 ± 2
- Kp ([1]; 2400 mg, average of 8 healthy volunteers, single oral dose 2400 mg ATB, read-out: Cmax Saliva/Plasma Ratio): 6.4 ± 1.4
- AUC(0-t) ([1]; saliva, 2400 mg, average of 8 healthy volunteers, single oral dose 2400 mg ATB, saliva, read-out: AUC0–24 Saliva): 1210 ± 399 ng·h/mL
- Cmax ([1]; saliva, 2400 mg, average of 8 healthy volunteers, single oral dose 2400 mg ATB, saliva, read-out: Cmax Saliva): 153 ± 53.5 ng/mL
- half-life ([1]; saliva, 2400 mg, average of 8 healthy volunteers, single oral dose 2400 mg ATB, saliva, read-out: Half-Life Saliva (converted)): 13.4 ± 6.9 h
- Tmax ([1]; saliva, 2400 mg, average of 8 healthy volunteers, single oral dose 2400 mg ATB, saliva, read-out: Tmax Saliva): 1.5 ± 0.9 h
- AUC0–24 Saliva/Plasma Ratio [1, 12]: 8.57 and 4.71 and 2.86 and 4.68 and 4.61 and 4.14 and 4.81 and 3.93
- Cmax Saliva/Plasma Ratio [1, 12]: 6.73 and 5.60 and 3.26 and 5.12 and 7.05 and 7.41 and 7.27 and 9.08
- AUC0–24 Plasma [1, 13]: 173.50 ng·h/mL and 240.73 ng·h/mL and 295.05 ng·h/mL and 228.16 ng·h/mL and 408.92 ng·h/mL and 247.39 ng·h/mL and 428.83 ng·h/mL and 231.84 ng·h/mL
- Cmax Plasma [1, 13]: 22.70 ng/mL and 28.06 ng/mL and 23.60 ng/mL and 28.56 ng/mL and 21.28 ng/mL and 31.91 ng/mL and 22.48 ng/mL
- Half-Life Plasma [1, 13]: 6.99 h and 8.43 h and 15.12 h and 17.06 h and 10.66 h and 9.84 h and 6.29 h and 8.65 h
- Tmax Plasma [1, 13]: 3 h and 3.3 h and 1 h
- AUC0–24 Saliva [1, 14]: 1487.35 ng·h/mL and 1133.48 ng·h/mL and 845.11 ng·h/mL and 1067.94 ng·h/mL and 1884.98 ng·h/mL and 1024.67 ng·h/mL and 2064.14 ng·h/mL and 911.28 ng·h/mL
- Cmax Saliva [1, 14]: 153.18 ng/mL and 127.11 ng/mL and 91.61 ng/mL and 120.81 ng/mL and 201.34 ng/mL and 157.71 ng/mL and 231.60 ng/mL and 204.07 ng/mL
- Half-Life Saliva [1, 14]: 7.38 h and 9.83 h and 7.59 h and 26.39 h and 18.98 h and 11.13 h and 5.42 h and 12.23 h
- Tmax Saliva [1, 14]: 0.5 h and 1 h and 3 h
- inter-subject variability of systemic exposure (AUC) ([1]; plasma): 30.1%
- inter-subject variability of systemic exposure (AUC) ([1]; saliva): 32.8%
- bioavailability [2]: 2.4 ± 1.2%
- remaining percentage in ATB tablets, Long term 3 months ([3]; 25 ± 2 °C/60 ± 5% RH): 89.1 ± 2.7%
- remaining percentage in ATB tablets, Long term 6 months ([3]; 25 ± 2 °C/60 ± 5% RH): 93.9 ± 2.1%
- remaining percentage in ATB tablets, Long term 12 months ([3]; 25 ± 2 °C/60 ± 5% RH): 89.6 ± 0.8%
- remaining percentage in ATB tablets, Intermediate 3 months ([3]; 30 ± 2 °C/65 ± 5% RH): 89.6 ± 0.5%
- remaining percentage in ATB tablets, Intermediate 6 months ([3]; 30 ± 2 °C/65 ± 5% RH): 92.1 ± 3.6%
- remaining percentage in ATB tablets, Accelerated term 3 months ([3]; 40 ± 2 °C/75 ± 5% RH): 87.0 ± 5.0%
- remaining percentage in ATB tablets, Accelerated term 6 months ([3]; 40 ± 2 °C/75 ± 5% RH): 99.4 ± 3.2%
- First pass effect [4]: 26.00%
- Stability, 3 cycles freeze-thaw ([5]; HQC concentration level): 99.1 ± 6.7
- Stability, Bench work (4 hrs, 25 oC) ([5]; HQC concentration level): 103.1 ± 2.6
- Stability, Short-term (7 days, -20 oC) ([5]; HQC concentration level): 88.3 ± 6.6
- Stability, 3 cycles freeze-thaw ([5]; LOQ concentration level): 109.6 ± 1.3
- Stability, 3 cycles freeze-thaw ([5]; MQC concentration level): 93.7 ± 3.4
- Stability, Bench work (4 hrs, 25 oC) ([5]; MQC concentration level): 85.8 ± 8.9
- AUC0-T Human Subjects Observed [6]: 412.2 ng·h/mL
- Cmax Human Subjects Observed [6]: 29.7 ng/mL
- Tmax Human Subjects Observed [6]: 3.0 h
- Stability, Long-term (6 months, -80 oC) ([7]; HQC concentration level): 94.6 ± 6.7
- Stability, Bench work (4 hrs, 25 oC) ([7]; LOQ concentration level): 110.5 ± 18.0
- Stability, Long-term (6 months, -80 oC) ([7]; LOQ concentration level): 96.2 ± 0.6
- Stability, Short-term (7 days, -20 oC) ([7]; LOQ concentration level): 86.6 ± 3.8
- Stability, Long-term (6 months, -80 oC) ([7]; MQC concentration level): 105.8 ± 3.8
- Stability, Short-term (7 days, -20 oC) ([7]; MQC concentration level): 85.7 ± 8.7
- Rbp [8]: 0.97
